Test results published in ChEMBL document CHEMBL5053528, “Discovery of 2-(Ortho-Substituted Benzyl)-Indole Derivatives as Potent and Orally Bioavailable RORγ Agonists with Antitumor Activity” (J Med Chem, 2021).

What was measured:
[1] = Clearance in rat at 1 mg/kg, iv; type: ADME, organism-based; conditions: in vivo
[2] = Clearance in dog at 0.5 mg/kg, iv; type: ADME, organism-based, Canis lupus familiaris; conditions: in vivo
[3] = Cmax in mouse at 2 mg/kg, po; type: ADME, organism-based; design: dose 2 mg/kg, route po; conditions: in vivo
[4] = Cmax in rat at 2 mg/kg, po; type: ADME, organism-based; design: dose 2 mg/kg, route po; conditions: in vivo
[5] = Cmax in dog at 2 mg/kg, po; type: ADME, organism-based, Canis lupus familiaris; design: dose 2 mg/kg, route po; conditions: in vivo
[6] = Half life in rat at 2 mg/kg, po; type: ADME, organism-based; conditions: in vivo
[7] = Volume of distribution in rat at 2 mg/kg, po; type: ADME, organism-based; conditions: in vivo
[8] = AUC (0 to t) in mouse at 1 mg/kg, iv; type: ADME, organism-based; design: dose 1 mg/kg, route iv; conditions: in vivo
[9] = AUC (0 to t) in mouse at 2 mg/kg, po; type: ADME, organism-based; design: dose 2 mg/kg, route po; conditions: in vivo
[10] = AUC (0 to t) in rat at 1 mg/kg, iv; type: ADME, organism-based; design: dose 1 mg/kg, route iv; conditions: in vivo
[11] = AUC (0 to t) in rat at 2 mg/kg, po; type: ADME, organism-based; design: dose 2 mg/kg, route po; conditions: in vivo
[12] = AUC (0 to t) in dog at 0.5 mg/kg, iv; type: ADME, organism-based, Canis lupus familiaris; design: dose 0.5 mg/kg, route iv; conditions: in vivo
[13] = AUC (0 to t) in dog at 2 mg/kg, po; type: ADME, organism-based, Canis lupus familiaris; design: dose 2 mg/kg, route po; conditions: in vivo
[14] = Volume of distribution in mouse at 1 mg/kg, iv; type: ADME, organism-based; conditions: in vivo, iv, 1 mg/kg
[15] = Volume of distribution in mouse at 2 mg/kg, po; type: ADME, organism-based; conditions: in vivo
[16] = Volume of distribution in rat at 1 mg/kg, iv; type: ADME, organism-based; conditions: in vivo
[17] = Volume of distribution in dog at 0.5 mg/kg, iv; type: ADME, organism-based, Canis lupus familiaris; conditions: in vivo
[18] = Volume of distribution in dog at 2 mg/kg, po; type: ADME, organism-based, Canis lupus familiaris; conditions: in vivo
[19] = Half life in mouse at 1 mg/kg, iv; type: ADME, organism-based; conditions: in vivo, iv, 1 mg/kg
[20] = Half life in mouse at 2 mg/kg, po; type: ADME, organism-based; conditions: in vivo
[21] = Half life in rat at 1 mg/kg, iv; type: ADME, organism-based; conditions: in vivo
[22] = Half life in dog at 0.5 mg/kg, iv; type: ADME, organism-based, Canis lupus familiaris; conditions: in vivo
[23] = Half life in dog at 2 mg/kg, po; type: ADME, organism-based, Canis lupus familiaris; conditions: in vivo
[24] = Oral bioavailability in mouse; type: ADME, organism-based; conditions: in vivo
[25] = Oral bioavailability in rat; type: ADME, organism-based; conditions: in vivo
[26] = Oral bioavailability in dog; type: ADME, organism-based, Canis lupus familiaris; conditions: in vivo
Mus musculus [27] = assay: Toxicity in C57BL/6 mouse infected with mouse MC38 cells assessed as change in body weight at 10 mg/kg, po administered once daily for 25 days and measured twice a week; type: organism-based, MC-38; conditions: in vivo, 600 h, time 25 day
Mus musculus [28] = assay: Toxicity in C57BL/6 mouse injected with mouse MC38 cells assessed as change in body weight at 10 mg/kg, po administered once daily for 25 days in combination with anti-mouse-PD1 monoclonal antibody at 5 mg/kg, ip and measured twice a week; type: organism-based, MC-38; conditions: in vivo, 600 h, time 25 day
MC-38 [29] = assay: Antitumor activity against mouse MC38 cells injected C57BL/6 mouse syngenic model assessed as tumor growth inhibition at 10 mg/kg, po administered once daily for 25 days relative to control; type: functional; conditions: C57BL/6, MC-38, 600 h, time 25 day, read-out: TGI
MC-38 [30] = assay: Antitumor activity against mouse MC38 cells injected C57BL/6 mouse syngenic model assessed as tumor growth inhibition at 10 mg/kg, po administered once daily for 25 days in combination with anti-mouse PD-1 monoclonal antibody at 5 mg/kg, ip relative to control; type: functional; conditions: C57BL/6, MC-38, 600 h, time 25 day, read-out: TGI
[31] = Drug exposure in plasma of C57BL/6 mouse injected with mouse MC38 cells at 10 mg/kg, po measured 3 hrs post dose on day 25 by LC/MS analysis; type: ADME, organism-based, MC-38; conditions: time 25 day
[32] = Drug exposure in plasma of C57BL/6 mouse injected with mouse MC38 cells at 10 mg/kg, po measured 3 hrs post dose on day 25 in combination with anti-mouse PD1 monoclonal antibody at 5 mg/kg, ip by LC/MS analysis; type: ADME, organism-based, MC-38; conditions: time 25 day
[33] = Drug exposure in tumor of C57BL/6 mouse injected with mouse MC38 cells at 10 mg/kg, po measured 3 hrs post dose on day 25 by LC/MS analysis; type: ADME, organism-based, Neoplasm, MC-38; conditions: time 25 day, read-out: Drug uptake
[34] = Drug exposure in tumor of C57BL/6 mouse injected with mouse MC38 cells at 10 mg/kg, po measured 3 hrs post dose on day 25 in combination with anti-mouse PD1 monoclonal antibody at 5 mg/kg, ip by LC/MS analysis; type: ADME, organism-based, Neoplasm, MC-38; conditions: time 25 day, read-out: Drug uptake
[35] = Effects of compound in IL-17 production in CD3/CD28-stimulated C57BL/6 mouse tumor lymphocytes assessed as increase in IL-17 production at 10 mg/kg by ELISA (Rvb= 19 +/- 5 pg/ml); type: functional, Lymphocyte
[36] = Effects of compound in IL-17 production in CD3/CD28-stimulated C57BL/6 mouse tumor lymphocytes assessed as increase in IL-17 production at 10 mg/kg in combination with anti-mouse PD1 monoclonal antibody at 5 mg/kg by ELISA (Rvb= 29 +/- 9 pg/ml); type: functional, Lymphocyte
[37] = Effects of compound in IFNgamma production in CD3/CD28-stimulated C57BL/6 mouse tumor lymphocytes assessed as increase in IFNgamma production at 10 mg/kg by ELISA (Rvb= 262 +/- 81 pg/ml); type: functional, Lymphocyte
[38] = Effects of compound in IFNgamma production in CD3/CD28-stimulated C57BL/6 mouse tumor lymphocytes assessed as increase in IFNgamma production at 10 mg/kg in combination with anti-mouse PD1 monoclonal antibody at 5 mg/kg by ELISA (Rvb= 1467 +/- 878 pg/ml); type: functional, Lymphocyte

Question: For `CCS(=O)(=O)c1ccc([C@H](CO)NC(=O)c2ccc3c(c2)cc(Cc2ccc(Cl)cc2C(F)(F)F)n3CCF)cc1`, which clearance [1] is on record?
Answer: The clearance was 16.2 mL/min/kg.

Question: And the clearance [2]?
Answer: The clearance was 0.954 mL/min/kg.

Question: And the Cmax [3]?
Answer: The Cmax was 3660 ng/mL.

Question: What about the Cmax [4] of the same molecule?
Answer: The Cmax was 55.7 ng/mL.

Question: And the Cmax [5]?
Answer: The Cmax was 2080 ng/mL.

Question: And the half-life [6]?
Answer: Its half-life is 5.96 h.

Question: What about the Vd [7] of the same molecule?
Answer: Its Vd is 25.7 L/kg.

Question: And the AUC(0-t) [8]?
Answer: Its AUC(0-t) is 79800 ng·h/mL.

Question: What about the AUC(0-t) [9] of the same molecule?
Answer: Its AUC(0-t) is 50600 ng·h/mL.

Question: What about the AUC(0-t) [10] of the same molecule?
Answer: The AUC(0-t) was 1050 ng·h/mL.

Question: What about the AUC(0-t) [11] of the same molecule?
Answer: The AUC(0-t) was 618 ng·h/mL.

Question: And the AUC(0-t) [12]?
Answer: Its AUC(0-t) is 8640 ng·h/mL.

Question: And the AUC(0-t) [13]?
Answer: The AUC(0-t) was 29100 ng·h/mL.

Question: What about the Vd [14] of the same molecule?
Answer: Its Vd is 0.877 L/kg.

Question: And the Vd [15]?
Answer: The Vd was 0.637 L/kg.

Question: And the Vd [16]?
Answer: The Vd was 3.65 L/kg.

Question: What about the Vd [17] of the same molecule?
Answer: The Vd was 0.654 L/kg.

Question: And the Vd [18]?
Answer: The Vd was 0.873 L/kg.

Question: What about the t1/2 [19] of the same molecule?
Answer: Its t1/2 is 5.04 h.

Question: What about the half-life [20] of the same molecule?
Answer: Its half-life is 11.2 h.

Question: What about the half-life [21] of the same molecule?
Answer: Its half-life is 2.67 h.

Question: And the half-life [22]?
Answer: The half-life was 8.8 h.

Question: What about the half-life [23] of the same molecule?
Answer: The half-life was 11.8 h.

Question: And the bioavailability [24]?
Answer: Its bioavailability is 31.7%.

Question: What about the bioavailability [25] of the same molecule?
Answer: Its bioavailability is 29.4%.

Question: And the bioavailability [26]?
Answer: Its bioavailability is 84.2%.

Question: What about the Activity (Mus musculus [27]) of the same molecule?
Answer: The Activity was “Non-Toxic”.

Question: What about the Activity (Mus musculus [28]) of the same molecule?
Answer: Its Activity is “Non-Toxic”.

Question: And the inhibition in vivo at 10 mg/kg (MC-38 [29])?
Answer: Its inhibition in vivo at 10 mg/kg is 37%.

Question: And the inhibition in vivo at 10 mg/kg (MC-38 [30])?
Answer: The inhibition in vivo at 10 mg/kg was 62%.

Question: What about the concentration at 600 h [31] of the same molecule?
Answer: Its concentration at 600 h is 9120 ng/mL.

Question: What about the concentration at 600 h [32] of the same molecule?
Answer: Its concentration at 600 h is 10800 ng/mL.

Question: And the concentration at 600 h [33]?
Answer: The concentration at 600 h was 2020 ng/mL.

Question: What about the concentration at 600 h [34] of the same molecule?
Answer: The concentration at 600 h was 2320 ng/mL.

Question: What about the Activity [35] of the same molecule?
Answer: Its Activity is 36 pg/mL.

Question: What about the Activity [36] of the same molecule?
Answer: Its Activity is 81 pg/mL.

Question: And the Activity [37]?
Answer: The Activity was 1217 pg/mL.

Question: And the Activity [38]?
Answer: Its Activity is 2455 pg/mL.
